As usually defined, the IC50 is the point on the concentration scale where inhibition reaches its midpoint.

The values that follow come from patent US20110053923A1, “CHEMICAL COMPOUNDS 610” (AstraZeneca, priority 2008, published 2011).

The target of test [1] is mTOR (Homo sapiens, UniProt P42345). Kind of test: Enzyme - mTOR Kinase Assay (Echo).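 Further: enzyme expressed in HEK293 cells, 2 h incubation at room temperature, read-out is phosphorylation of a biotinylated peptide substrate detected with an anti-phospho p70 S6 Kinase (T389) antibody, inhibition lowers signal.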 Conditions: recombinant FLAG-tagged mTOR (1362-2549); AlphaScreen; ATP 20 μM. The test is classed as biochemical. In general terms: In Alpha technology, singlet oxygen from a donor bead excites a nearby acceptor bead.
mTOR, sequence (P42345 1362-2549): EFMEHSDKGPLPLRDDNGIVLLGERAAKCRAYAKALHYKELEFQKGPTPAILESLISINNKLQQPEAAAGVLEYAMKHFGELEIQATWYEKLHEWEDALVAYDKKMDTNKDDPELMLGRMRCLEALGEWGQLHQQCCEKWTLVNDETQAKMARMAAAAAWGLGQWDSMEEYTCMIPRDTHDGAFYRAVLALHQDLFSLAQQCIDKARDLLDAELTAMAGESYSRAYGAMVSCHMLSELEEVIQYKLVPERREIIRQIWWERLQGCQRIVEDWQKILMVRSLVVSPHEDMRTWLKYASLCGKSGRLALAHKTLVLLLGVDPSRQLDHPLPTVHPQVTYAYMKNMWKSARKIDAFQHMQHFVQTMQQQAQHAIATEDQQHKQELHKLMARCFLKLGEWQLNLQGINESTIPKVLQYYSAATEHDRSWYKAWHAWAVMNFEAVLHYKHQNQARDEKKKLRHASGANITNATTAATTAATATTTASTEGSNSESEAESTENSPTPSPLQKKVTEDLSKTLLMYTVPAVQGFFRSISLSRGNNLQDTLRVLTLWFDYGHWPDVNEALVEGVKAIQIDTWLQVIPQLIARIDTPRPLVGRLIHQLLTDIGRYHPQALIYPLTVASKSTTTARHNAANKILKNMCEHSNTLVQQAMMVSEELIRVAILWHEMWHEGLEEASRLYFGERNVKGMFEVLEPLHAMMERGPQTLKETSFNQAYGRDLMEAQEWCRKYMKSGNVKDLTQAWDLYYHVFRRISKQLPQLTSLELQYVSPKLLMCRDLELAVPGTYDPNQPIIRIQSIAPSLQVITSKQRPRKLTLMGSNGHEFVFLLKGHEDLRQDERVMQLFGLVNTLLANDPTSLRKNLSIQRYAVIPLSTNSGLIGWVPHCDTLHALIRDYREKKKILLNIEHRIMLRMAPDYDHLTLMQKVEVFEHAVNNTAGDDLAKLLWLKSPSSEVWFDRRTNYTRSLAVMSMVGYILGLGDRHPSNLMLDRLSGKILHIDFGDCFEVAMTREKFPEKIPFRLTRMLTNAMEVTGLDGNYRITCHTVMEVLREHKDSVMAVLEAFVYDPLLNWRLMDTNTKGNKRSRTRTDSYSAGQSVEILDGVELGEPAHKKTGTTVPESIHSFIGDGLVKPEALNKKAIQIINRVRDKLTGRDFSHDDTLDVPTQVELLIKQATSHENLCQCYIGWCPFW
In test [2] the target is T1, ATR (Homo sapiens, UniProt Q13535).
T1 construct: obtained from HeLa nuclear extract (CIL Biotech, Mons, Belgium) by immunoprecipitation with rabbit polyclonal antiserum raised to amino acids 400-480 of ATR; host or cells: HeLa nuclear extract
T1 sequence (Q13535 whole entry, the tested form may be a part): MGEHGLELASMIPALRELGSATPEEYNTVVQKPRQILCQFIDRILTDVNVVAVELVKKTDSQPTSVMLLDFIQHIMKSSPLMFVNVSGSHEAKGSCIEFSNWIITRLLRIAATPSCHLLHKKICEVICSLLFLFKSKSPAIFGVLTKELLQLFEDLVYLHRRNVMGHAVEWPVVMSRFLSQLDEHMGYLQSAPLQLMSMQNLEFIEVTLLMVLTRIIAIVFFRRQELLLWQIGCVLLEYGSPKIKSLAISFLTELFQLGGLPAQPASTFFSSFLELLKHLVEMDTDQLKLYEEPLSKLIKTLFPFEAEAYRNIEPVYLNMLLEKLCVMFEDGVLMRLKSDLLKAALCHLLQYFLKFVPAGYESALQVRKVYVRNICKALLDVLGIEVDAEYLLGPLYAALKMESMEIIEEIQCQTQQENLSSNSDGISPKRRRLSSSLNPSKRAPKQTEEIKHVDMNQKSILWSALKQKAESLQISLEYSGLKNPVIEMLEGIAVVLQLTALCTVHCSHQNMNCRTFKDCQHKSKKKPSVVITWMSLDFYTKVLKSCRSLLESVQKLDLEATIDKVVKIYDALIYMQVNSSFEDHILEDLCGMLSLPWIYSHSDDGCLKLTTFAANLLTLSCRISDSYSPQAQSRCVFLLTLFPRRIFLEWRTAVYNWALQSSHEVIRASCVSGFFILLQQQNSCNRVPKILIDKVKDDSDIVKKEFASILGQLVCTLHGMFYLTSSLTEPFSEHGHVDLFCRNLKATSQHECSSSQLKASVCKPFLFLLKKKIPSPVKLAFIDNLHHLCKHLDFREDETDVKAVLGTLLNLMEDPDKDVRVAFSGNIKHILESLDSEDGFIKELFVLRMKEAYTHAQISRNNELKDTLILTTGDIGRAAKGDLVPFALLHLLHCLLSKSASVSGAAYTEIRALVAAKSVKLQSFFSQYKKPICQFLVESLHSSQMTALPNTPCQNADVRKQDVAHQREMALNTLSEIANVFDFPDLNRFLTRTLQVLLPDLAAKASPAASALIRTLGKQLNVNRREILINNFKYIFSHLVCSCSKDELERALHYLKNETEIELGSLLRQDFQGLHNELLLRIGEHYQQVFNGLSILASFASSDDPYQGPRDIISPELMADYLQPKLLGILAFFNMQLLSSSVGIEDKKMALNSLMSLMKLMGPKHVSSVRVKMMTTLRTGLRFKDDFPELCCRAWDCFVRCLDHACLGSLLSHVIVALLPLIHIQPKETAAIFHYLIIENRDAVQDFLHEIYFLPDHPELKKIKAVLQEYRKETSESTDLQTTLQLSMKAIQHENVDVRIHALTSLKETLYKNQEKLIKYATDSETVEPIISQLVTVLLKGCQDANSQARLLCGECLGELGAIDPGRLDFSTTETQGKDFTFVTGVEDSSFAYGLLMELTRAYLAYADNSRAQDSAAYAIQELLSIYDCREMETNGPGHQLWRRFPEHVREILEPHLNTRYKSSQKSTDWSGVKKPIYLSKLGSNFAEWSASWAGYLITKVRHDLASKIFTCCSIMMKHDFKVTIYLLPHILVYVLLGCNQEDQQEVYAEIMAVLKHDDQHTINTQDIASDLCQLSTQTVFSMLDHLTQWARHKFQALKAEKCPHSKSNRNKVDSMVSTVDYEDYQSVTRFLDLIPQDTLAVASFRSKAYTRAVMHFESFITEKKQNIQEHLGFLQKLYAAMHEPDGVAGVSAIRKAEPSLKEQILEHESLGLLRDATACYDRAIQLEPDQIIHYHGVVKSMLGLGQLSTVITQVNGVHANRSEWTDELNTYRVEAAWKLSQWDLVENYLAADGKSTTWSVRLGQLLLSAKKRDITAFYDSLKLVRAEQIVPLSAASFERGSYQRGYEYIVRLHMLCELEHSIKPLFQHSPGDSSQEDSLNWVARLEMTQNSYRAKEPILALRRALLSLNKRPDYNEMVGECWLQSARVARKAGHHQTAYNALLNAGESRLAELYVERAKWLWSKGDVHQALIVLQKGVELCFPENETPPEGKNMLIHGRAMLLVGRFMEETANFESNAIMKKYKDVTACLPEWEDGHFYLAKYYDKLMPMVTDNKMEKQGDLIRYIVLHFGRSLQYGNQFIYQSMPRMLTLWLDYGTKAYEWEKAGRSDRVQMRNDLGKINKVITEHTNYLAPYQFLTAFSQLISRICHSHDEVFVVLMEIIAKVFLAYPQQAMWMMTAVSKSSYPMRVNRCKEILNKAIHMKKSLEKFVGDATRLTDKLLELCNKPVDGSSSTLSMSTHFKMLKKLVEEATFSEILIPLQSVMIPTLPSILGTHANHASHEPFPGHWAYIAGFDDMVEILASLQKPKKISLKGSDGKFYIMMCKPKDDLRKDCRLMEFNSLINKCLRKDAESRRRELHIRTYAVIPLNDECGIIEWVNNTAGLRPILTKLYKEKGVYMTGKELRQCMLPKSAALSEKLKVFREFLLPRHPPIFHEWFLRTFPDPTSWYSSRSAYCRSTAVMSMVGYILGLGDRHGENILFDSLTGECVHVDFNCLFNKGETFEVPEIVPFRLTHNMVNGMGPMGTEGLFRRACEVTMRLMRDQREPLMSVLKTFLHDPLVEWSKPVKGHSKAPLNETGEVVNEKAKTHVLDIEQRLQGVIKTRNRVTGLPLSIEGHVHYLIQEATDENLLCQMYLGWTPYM
T1 sequence (Q8WXE1 whole entry partner, the tested form may be a part): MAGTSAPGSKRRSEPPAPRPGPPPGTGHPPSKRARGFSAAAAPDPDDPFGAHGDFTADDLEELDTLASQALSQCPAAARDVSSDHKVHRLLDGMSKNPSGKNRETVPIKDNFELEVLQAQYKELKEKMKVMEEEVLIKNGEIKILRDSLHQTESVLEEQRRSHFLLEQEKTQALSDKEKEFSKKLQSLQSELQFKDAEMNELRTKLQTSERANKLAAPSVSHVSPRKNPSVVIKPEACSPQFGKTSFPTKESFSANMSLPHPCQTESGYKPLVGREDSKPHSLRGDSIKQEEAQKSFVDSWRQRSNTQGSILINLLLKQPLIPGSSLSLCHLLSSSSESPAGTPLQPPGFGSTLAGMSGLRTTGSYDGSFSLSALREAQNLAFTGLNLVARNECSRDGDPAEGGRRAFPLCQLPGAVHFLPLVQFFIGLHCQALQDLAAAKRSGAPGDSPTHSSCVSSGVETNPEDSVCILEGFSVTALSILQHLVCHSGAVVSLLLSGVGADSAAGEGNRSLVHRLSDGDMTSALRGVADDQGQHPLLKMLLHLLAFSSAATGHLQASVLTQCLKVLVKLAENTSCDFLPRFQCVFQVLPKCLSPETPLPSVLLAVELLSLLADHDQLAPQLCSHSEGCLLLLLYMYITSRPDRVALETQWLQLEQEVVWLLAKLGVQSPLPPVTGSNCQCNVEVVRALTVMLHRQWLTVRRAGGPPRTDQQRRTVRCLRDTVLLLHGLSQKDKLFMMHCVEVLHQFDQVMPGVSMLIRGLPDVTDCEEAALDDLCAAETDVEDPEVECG
The test can be described thus: Enzyme Assay - ATR (Test (a)).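 Further: kinase activity of bead-bound ATR toward a GST-p53 N-terminal fragment substrate, 1 h at 37 °C, read by chemiluminescence, with inhibitor-free wells as control.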 It counts as biochemical. Particulars: ATR immunoprecipitated from HeLa nuclear extract; 3 μM ATP; average of individual tests; read-out: ATR average IC50.

`CS(=O)(=O)C1(c2cc(N3CC4CCC(C3)O4)nc(-c3cccc4[nH]ccc34)n2)CC1` [Example 5.01, 4-{4-[1-(Methylsulfonyl)cyclopropyl]-6-(8-oxa-3-azabicyclo[3.2.1]oct-3-yl)pyrimidin-2-yl}-1H-indole]: the IC50 in test [1] came to 21 nM. As for `CS(=O)(=O)C1(c2cc(N3CCOCC3)nc(-c3cc(Cl)cc4[nH]ccc34)n2)CC1` [Example 1.06, 6-chloro-4-{4-[1-(methylsulfonyl)cyclopropyl]-6-morpholin-4-ylpyrimidin-2-yl}-1H-indole], the IC50 in test [2] was 15.8 nM; in test [1], 71.2 nM. `C[C@@H]1COCCN1c1cc(C2(S(C)(=O)=O)CCOCC2)nc(-c2cccc3[nH]ccc23)n1` [Example 3.08, 4-{4-[(3R)-3-Methylmorpholin-4-yl]-6-[4-(methylsulfonyl)tetrahydro-2H-pyran-4-yl]pyrimidin-2-yl}-1H-indole]: the results for the IC50 in test [2] and in test [1] were 2.32 nM and 225 nM, respectively.

For the molecule `O=S(=O)(C1CC1)C1(c2cc(N3CCOCC3)nc(-c3cccc4[nH]ccc34)n2)CCOCC1` [Example 1.13, 4-{4-[4-(cyclopropylsulfonyl)tetrahydro-2H-pyran-4-yl]-6-morpholin-4-ylpyrimidin-2-yl}-1H-indole], the IC50 is 58.3 nM in test [2] and 1240 nM in test [1]. With `C[C@@H]1COCCN1c1cc(C2(S(C)(=O)=O)CCOCC2)nc(-c2cc(Cl)cc3[nH]ccc23)n1` [Example 3.12], the IC50 in test [2] came to 2.5 nM; in test [1], 420 nM.

`C[C@H]1COCCN1c1cc(C2(S(C)(=O)=O)CCCC2)nc(-c2cccc3[nH]ccc23)n1` [Example 2.03, 4-{4-[(3S)-3-Methylmorpholin-4-yl]-6-[1-(methylsulfonyl)cyclopentyl]pyrimidin-2-yl}-1H-indole]: the IC50 in test [2] was found to be 6.21 nM; in test [1], 99 nM. Taken in the same sequence, the figures for `C[C@@H]1COCCN1c1cc(C2(S(=O)(=O)C3CC3)CCNCC2)nc(-c2cccc3[nH]ccc23)n1` [Example 3.18, 4-{4-[4-(Cyclopropylsulfonyl)piperidin-4-yl]-6-[(3R)-3-methylmorpholin-4-yl]pyrimidin-2-yl}-1H-indole] were 7.62 nM and 383 nM. Regarding `CCS(=O)(=O)C1(c2cc(N3CCOCC3)nc(-c3cccc4[nH]ccc34)n2)CC1` [Example 1.10, 4-{4-[1-(ethylsulfonyl)cyclopropyl]-6-morpholin-4-ylpyrimidin-2-yl}-1H-indole], the IC50 in test [2] is 15 nM; in test [1] it was 95.8 nM. For the molecule `CCS(=O)(=O)C1(c2cc(N3CCOC[C@H]3C)nc(-c3cccc4[nH]ccc34)n2)CCOCC1` [Example 3.21, 4-{4-[4-(Ethylsulfonyl)tetrahydro-2H-pyran-4-yl]-6-[(3R)-3-methylmorpholin-4-yl]pyrimidin-2-yl}-1H-indole], the results for the IC50 in test [2] and in test [1] were 6.89 nM and 686 nM, respectively. For the molecule `COc1cc(-c2nc(N3CCOC[C@H]3C)cc(C3(S(C)(=O)=O)CCOCC3)n2)c2cc[nH]c2c1` [Example 3.11, 6-Methoxy-4-{4-[(3R)-3-methylmorpholin-4-yl]-6-[4-(methylsulfonyl)tetrahydro-2H-pyran-4-yl]pyrimidin-2-yl}-1H-indole], the 50% inhibitory concentration (IC50) is 1.58 nM in test [2] and 77.9 nM in test [1]. `CS(=O)(=O)C1(c2cc(N3CCOCC3)nc(-c3cccc4[nH]ccc34)n2)CC1` [Example 1.01, 4-{4-[1-(Methylsulfonyl)cyclopropyl]-6-morpholin-4-ylpyrimidin-2-yl}-1H-indole]: the 50% inhibitory concentration (IC50) in test [1] was 179 nM.

Take `CS(=O)(=O)C1(c2cc(N3CCOCC3)nc(-c3cccc4[nH]ccc34)n2)CCOCC1` [Example 1.09, 4-{4-[4-(Methylsulfonyl)tetrahydro-2H-pyran-4-yl]-6-morpholin-4-ylpyrimidin-2-yl}-1H-indole]: in test [2], the IC50 came out at 3.74 nM. Take `C[C@@H]1COC[C@H](C)N1c1cc(C2(S(C)(=O)=O)CC2)nc(-c2cccc3[nH]ccc23)n1` [Example 4.01, 4-{4-[(3S,5R)-3,5-Dimethylmorpholin-4-yl]-6-[1-(methylsulfonyl)cyclopropyl]pyrimidin-2-yl}-1H-indole]: the IC50 in test [2] stood at 20.2 nM.
